Reference: ChEMBL document CHEMBL1201862, “PubChem BioAssay data set” (2004)
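Assay format: 96-well plates, 48-hour exposure. The concentration for 50% growth inhibition is given as GI50.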 Active and inactive are the calls of the source. No stated cut-off is given here; in the data, active = GI50 up to about 1.1 µM and inactive = higher.

Experiments:
Assay in all cases: NCI anticancer screen, dose series, 48 h
A498 = test system: A498
A549 = test system: A549
COLO 205 = test system: COLO 205
DLD-1 = test system: DLD-1
DMS-114 = test system: DMS-114
DMS-273 = test system: DMS-273
EKVX = test system: EKVX
HCC 2998 = test system: HCC 2998
HCT-116 = test system: HCT-116
HCT-15 = test system: HCT-15
HL-60 = test system: HL-60
HOP-18 = test system: HOP-18
HOP-62 = test system: HOP-62
HOP-92 = test system: HOP-92
HT-29 = test system: HT-29
IGROV-1 = test system: IGROV-1
KM-20L2 = test system: KM-20L2
KM12 = test system: KM12
LOX IMVI = test system: LOX IMVI
M19-MEL = test system: M19-MEL
MCF7 = test system: MCF7
Malme-3M = test system: Malme-3M
NCI-H23 = test system: NCI-H23
NCI-H460 = test system: NCI-H460
NCI-H522 = test system: NCI-H522
NCI/ADR-RES = test system: NCI/ADR-RES
OVCAR-3 = test system: OVCAR-3
OVCAR-4 = test system: OVCAR-4
OVCAR-5 = test system: OVCAR-5
OVCAR-8 = test system: OVCAR-8
RXF 393 = test system: RXF 393
SF-268 = test system: SF-268
SF-295 = test system: SF-295
SF-539 = test system: SF-539
SK-MEL-28 = test system: SK-MEL-28
SK-MEL-2 = test system: SK-MEL-2
SK-MEL-5 = test system: SK-MEL-5
SN12C = test system: SN12C
SNB-19 = test system: SNB-19
SNB-75 = test system: SNB-75
SNB-78 = test system: SNB-78
SW-620 = test system: SW-620
U-251 = test system: U-251
UACC-62 = test system: UACC-62
UO-31 = test system: UO-31
XF498 = test system: XF498
786-0 = test system: 786-0
ACHN = test system: ACHN
CAKI-1 = test system: CAKI-1
CCRF-CEM = test system: CCRF-CEM
K562 = test system: K562
LXFL 529 = test system: LXFL 529
M14 = test system: M14
MOLT-4 = test system: MOLT-4
NCI-H226 = test system: NCI-H226
SK-OV-3 = test system: SK-OV-3
SR = test system: SR
TK-10 = test system: TK-10
UACC-257 = test system: UACC-257
RPMI-8226 = test system: RPMI-8226

Measured: GI50

O=c1oc2c(ccc3occc32)c(N2CCCCC2)c1-c1ccccc1
> 80 µM: HCT-15
inactive: A498 > 100 µM | A549 > 93.3 µM | COLO 205 > 100 µM | DLD-1 > 100 µM | DMS-114 > 86.1 µM | DMS-273 > 100 µM | EKVX > 70.8 µM | HCC 2998 > 100 µM | HCT-116 > 100 µM | HL-60 24.2 µM | HOP-18 > 88.5 µM | HOP-62 > 100 µM | HOP-92 > 73.8 µM | HT-29 61.2 µM | IGROV-1 > 100 µM | KM-20L2 > 100 µM | KM12 > 66.5 µM | LOX IMVI > 100 µM | M19-MEL > 100 µM | MCF7 > 93.5 µM | Malme-3M > 100 µM | NCI-H23 > 100 µM | NCI-H460 > 96.4 µM | NCI-H522 > 86.3 µM | NCI/ADR-RES > 100 µM | OVCAR-3 > 100 µM | OVCAR-4 > 93.3 µM | OVCAR-5 > 100 µM | OVCAR-8 > 100 µM | RXF 393 > 64.3 µM | SF-268 > 100 µM | SF-295 97.3 µM | SF-539 > 100 µM | SK-MEL-28 > 100 µM | SK-MEL-2 > 100 µM | SK-MEL-5 > 72.4 µM | SN12C > 100 µM | SNB-19 > 100 µM | SNB-75 > 80.7 µM | SNB-78 > 91.8 µM | SW-620 > 100 µM | U-251 > 100 µM | UACC-62 > 95.1 µM | UO-31 12.7 µM | XF498 > 100 µM

CCOC(=O)C1=C(Nc2ccc(Cl)cc2Cl)OC/C1=N\NS(=O)(=O)c1ccc(C)cc1
inactive: 786-0 > 100 µM | A498 > 100 µM | A549 > 100 µM | ACHN > 100 µM | CAKI-1 > 100 µM | CCRF-CEM > 100 µM | COLO 205 > 100 µM | DLD-1 > 100 µM | DMS-114 > 100 µM | DMS-273 > 100 µM | EKVX 91.6 µM | HCC 2998 > 100 µM | HCT-116 > 100 µM | HL-60 > 100 µM | HOP-18 > 100 µM | HOP-62 > 100 µM | HOP-92 > 100 µM | HT-29 > 100 µM | IGROV-1 > 100 µM | K562 > 100 µM | KM-20L2 > 100 µM | KM12 > 100 µM | LOX IMVI > 100 µM | LXFL 529 > 100 µM | M14 > 100 µM | M19-MEL > 100 µM | MOLT-4 > 100 µM | Malme-3M > 100 µM | NCI-H226 > 100 µM | NCI-H23 > 100 µM | NCI-H460 > 100 µM | NCI-H522 > 100 µM | OVCAR-3 41.2 µM | OVCAR-4 > 100 µM | OVCAR-5 > 100 µM | OVCAR-8 > 100 µM | RXF 393 > 100 µM | SF-268 > 100 µM | SF-295 > 100 µM | SF-539 > 100 µM | SK-MEL-28 > 100 µM | SK-MEL-2 > 100 µM | SK-MEL-5 > 100 µM | SK-OV-3 > 100 µM | SN12C > 100 µM | SNB-19 > 100 µM | SNB-75 > 100 µM | SNB-78 > 100 µM | SR > 100 µM | SW-620 > 100 µM | TK-10 > 100 µM | U-251 > 100 µM | UACC-257 > 100 µM | UACC-62 92.9 µM | UO-31 > 100 µM
> 100 µM: HCT-15

COc1ccccc1NC(=O)c1nc2ccc([N+](=O)[O-])cc2nc1C
> 100 µM: HCT-15
inactive: 786-0 > 100 µM | A498 > 100 µM | A549 > 100 µM | ACHN > 100 µM | CAKI-1 > 100 µM | CCRF-CEM > 100 µM | COLO 205 > 100 µM | DLD-1 > 100 µM | DMS-114 > 100 µM | DMS-273 > 100 µM | EKVX > 100 µM | HCC 2998 > 100 µM | HCT-116 > 100 µM | HOP-62 97.1 µM | HOP-92 51.8 µM | HT-29 > 100 µM | IGROV-1 > 100 µM | K562 > 100 µM | KM-20L2 > 100 µM | KM12 > 100 µM | LOX IMVI > 100 µM | LXFL 529 > 100 µM | M14 > 100 µM | M19-MEL > 100 µM | MOLT-4 > 100 µM | Malme-3M > 100 µM | NCI-H226 99.3 µM | NCI-H23 > 100 µM | NCI-H460 > 100 µM | NCI-H522 57.8 µM | OVCAR-3 > 100 µM | OVCAR-4 > 100 µM | OVCAR-5 > 100 µM | OVCAR-8 > 100 µM | RPMI-8226 > 100 µM | SF-268 > 100 µM | SF-539 > 100 µM | SK-MEL-28 > 100 µM | SK-MEL-2 > 100 µM | SK-MEL-5 > 100 µM | SK-OV-3 > 100 µM | SN12C > 100 µM | SNB-19 > 100 µM | SNB-75 65.3 µM | SW-620 > 100 µM | TK-10 > 100 µM | U-251 > 100 µM | UACC-257 > 100 µM | UACC-62 > 100 µM | UO-31 > 100 µM | XF498 21 µM
active: HOP-18 0.238 µM
